# In patent US20210137861A1, “METHODS FOR REDUCING ACCUMULATED PATHOLOGIC TAU PROTEIN” (HOUGH EAR INSTITUTE, priority 2018, published 2021):
# System: phospho-Tau (S202,T205) in SH-SY5Y neuroblastoma cells
# Test: Okadaic acid-induced p-Tau accumulation in SH-SY5Y cells, co-incubation (AT8 immunoblot)
# Format: cell-based
# Settings: 100 nM OA alone, 3 h
# Procedure: Reproducible hyperphosphorylated p-Tau accumulation can be induced in the SH-SY5Y neuroblastoma cell line following incubation with Okadaic Acid (OA), a small molecule inhibitor of protein phosphatase 2A (PP2A), according to the method described by Boban et al., J Neurosci Methods., S0165-0270(18)30297-8 (2018). In this experiment, SH-SY5Y cells were incubated with 100 nM OA alone or in combination with 2,4-DSPBN+NAC for three hours prior to harvesting the cells for immunoblot evaluations with the AT8 phospho-Tau (S202,T205) antibody or the housekeeping protein, GAPDH. […] Two doses of combinatorial 2,4-DSPBN+NAC (185 μM 2,4-DSPBN/500 μM NAC or 93 μM 2,4-DSPBN/250 μM NAC) were used in this experiment, each of which used a molar ratio that mimics the equal mass:mass ratios used in the in vivo studies (i.e. a 1:1 mass ratio of 2,4-DSPBN and NAC is equivalent to a 1:2.7 molar ratio).
# Biological and technical replicates of the experiment described in FIG. 3 were conducted, and p-Tau(S202,T205) immunoblots (AT8 antibody) were subjected to densitometric evaluations of relative protein levels, using National Institutes of Health ImageJ software and the internal GAPDH protein standard. […]
smiles,measurement,value
"C=C1[C@@H](O)[C@@H]2O[C@]3(CC[C@H](/C=C/[C@@H](C)[C@@H]4CC(C)=C[C@@]5(O[C@H](C[C@@](C)(O)C(=O)O)CC[C@H]5O)O4)O3)CC[C@H]2O[C@@H]1[C@@H](O)C[C@H](C)[C@H]1O[C@@]2(CCCCO2)CC[C@H]1C [OA, Okadaic Acid]","phospho-Tau(S202,T205) level relative to untreated control cells (immunoblot, FIG. 3)","marked phospho-Tau(S202,T205) accumulation"
